Reference: publication PMC10504561 (Plant Communications, 2023)

Tests used:
Experiment in all cases: LC-DAD of product
Type in all cases: biochemical
Conditions in all cases: S-adenosyl-L-methionine co-substrate, pH 7.5, 28 °C, 2 h
Gmγ-TMT3 = target: T1, Gmγ-TMT3 (Glycine max, UniProt A0A4D6BMW5)
T1 sequence (A0A4D6BMW5 1-302): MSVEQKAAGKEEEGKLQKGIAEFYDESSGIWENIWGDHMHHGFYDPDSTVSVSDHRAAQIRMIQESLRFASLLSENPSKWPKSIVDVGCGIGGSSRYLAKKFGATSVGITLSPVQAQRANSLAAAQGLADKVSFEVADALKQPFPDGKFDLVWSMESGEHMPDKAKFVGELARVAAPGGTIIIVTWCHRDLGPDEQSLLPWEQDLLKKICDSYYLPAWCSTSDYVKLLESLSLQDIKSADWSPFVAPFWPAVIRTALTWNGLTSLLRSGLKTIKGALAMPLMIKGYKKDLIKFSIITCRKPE

Gmγ-TMT1 = target: T2, Gmγ-TMT1 (Glycine max, UniProt A0A4D6BQA3)
T2 sequence (A0A4D6BQA3 1-296): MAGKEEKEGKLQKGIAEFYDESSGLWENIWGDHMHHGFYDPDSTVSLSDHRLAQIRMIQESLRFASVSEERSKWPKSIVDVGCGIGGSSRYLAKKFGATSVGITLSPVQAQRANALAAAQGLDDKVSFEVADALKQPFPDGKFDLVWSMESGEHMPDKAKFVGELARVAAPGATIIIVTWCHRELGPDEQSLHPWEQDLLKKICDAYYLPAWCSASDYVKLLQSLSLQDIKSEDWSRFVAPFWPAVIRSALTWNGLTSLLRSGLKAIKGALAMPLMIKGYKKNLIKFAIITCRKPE

Gmγ-TMT2 = target: T3, Gmγ-TMT2 (Glycine max, UniProt Q56GA2)
T3 sequence (Q56GA2 51-350): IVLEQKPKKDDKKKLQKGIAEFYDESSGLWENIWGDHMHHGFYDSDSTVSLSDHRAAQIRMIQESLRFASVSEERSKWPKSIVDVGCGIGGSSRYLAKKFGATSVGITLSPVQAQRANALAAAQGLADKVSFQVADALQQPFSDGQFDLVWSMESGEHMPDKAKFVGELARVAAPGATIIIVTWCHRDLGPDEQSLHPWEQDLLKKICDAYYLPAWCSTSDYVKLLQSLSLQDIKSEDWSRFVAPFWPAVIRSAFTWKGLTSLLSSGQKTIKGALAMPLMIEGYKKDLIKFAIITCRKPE

How did the activity (Gmγ-TMT3) turn out when `Cc1c(O)cc2c(c1C)O[C@](C)(CCC[C@H](C)CCC[C@H](C)CCCC(C)C)CC2` [γ-T] was run?
The activity was “Gmγ-TMT3 had three-fold higher activity toward γ-T than Gmγ-TMT1 and Gmγ-TMT2”.

And the activity (Gmγ-TMT1)?
Its activity is “Gmγ-TMT3 had three-fold higher activity toward γ-T than Gmγ-TMT1 and Gmγ-TMT2”.

What about the activity (Gmγ-TMT2) of the same compound?
Its activity is “Gmγ-TMT3 had three-fold higher activity toward γ-T than Gmγ-TMT1 and Gmγ-TMT2”.
